{"source": "paper PMC6294363", "about": "“Structural and functional insight into serine hydroxymethyltransferase from Helicobacter pylori” (PLoS ONE, 2018)", "key": {"[1]": {"molecular_target": "T1, HpSHMT (H. pylori SHMT; HP0183 gene product) (Helicobacter pylori, UniProt P56089)", "T1 construct": "gene glyA; full-length, C-terminal 6xHis tag (pQE60), expressed in E. coli SG 13009; predicted monomer 46,776 Da; homodimer; purified largely as apoprotein", "T1 sequence (P56089 1-416)": "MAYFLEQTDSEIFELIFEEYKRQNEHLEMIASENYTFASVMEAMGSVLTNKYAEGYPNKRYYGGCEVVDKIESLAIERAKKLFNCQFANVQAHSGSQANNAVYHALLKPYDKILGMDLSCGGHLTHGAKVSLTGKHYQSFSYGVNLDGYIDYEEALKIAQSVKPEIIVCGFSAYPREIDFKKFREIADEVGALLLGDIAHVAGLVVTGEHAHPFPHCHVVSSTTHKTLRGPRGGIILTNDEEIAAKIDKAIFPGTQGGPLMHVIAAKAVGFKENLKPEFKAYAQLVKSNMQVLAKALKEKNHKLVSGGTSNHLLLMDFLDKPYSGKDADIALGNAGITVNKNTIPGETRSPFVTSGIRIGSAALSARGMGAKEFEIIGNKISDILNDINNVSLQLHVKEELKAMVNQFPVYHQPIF", "assay": "absorbance at […] nm of enzyme-PLP-glycine-folate ternary complex, MTHF titration", "type": "binding", "settings": "read-out: apparent KFol"}, "[2]": {"molecular_target": "T1, HpSHMT (H. pylori SHMT; HP0183 gene product)", "assay": "coupled alcohol dehydrogenase assay, NADH oxidation at […] nm", "type": "biochemical", "settings": "20 uM SHMT, 250 uM PLP, 250 uM NADH, 50 mM phosphate pH 8.0, room temperature; folate-independent retroaldol cleavage"}, "[3]": {"molecular_target": "T1, HpSHMT (H. pylori SHMT; HP0183 gene product)", "assay": "absorbance at […] nm of enzyme-PLP-glycine-folate ternary complex", "type": "binding", "settings": "fixed 5 mM glycine with 250 uM PLP and 0-2 mM MTHF, pH 8.0, room temperature"}, "[4]": {"molecular_target": "the molecule itself", "assay": "crystal structure; HpSHMT apoprotein, hanging drop vapour diffusion, 20% PEG 3350, 0.2 M sodium acetate, room temperature; space group P212121, two monomers in the asymmetric unit; 2.8 Å"}}, "data": [{"molecule": "Nc1nc2c(c(=O)[nH]1)N1CN(c3ccc(C(=O)N[C@@H](CCC(=O)O)C(=O)O)cc3)C[C@H]1CN2", "note": "[MTHF]", "values": [{"measurement": "Kd", "setting": "[1]", "value": 300, "unit": "µM"}]}, {"molecule": "C[C@H](O)[C@H](N)C(=O)O", "note": "[L-allothreonine]", "values": [{"measurement": "coupled alcohol dehydrogenase assay, NADH oxidation at 340 nm", "setting": "[2]", "value": "it is able to transform L-allothreonine to acetaldehyde, thus confirming its activity as SHMT"}]}, {"molecule": "NCC(=O)O", "note": "[glycine]", "values": [{"measurement": "absorbance at 502 nm of enzyme-PLP-glycine-folate ternary complex", "setting": "[3]", "value": "corresponding to the intermediate ternary enzyme-PLP-glycine-folate complex"}]}, {"molecule": "Serine hydroxymethyltransferase from Helicobacter pylori 26695 (HP0183 gene product) (enzyme, Helicobacter pylori strain 26695, UniProt P56089 1-416, looked up, Serine hydroxymethyltransferase (glyA, ORF HP0183) of Helicobacter pylori strain 26695; gene amplified with primers SA36/SA37 (from the ATG to the end of the ORF) and inserted into pQE60; residues 3-416 modelled in the crystal; Homodimer by crystal structure and dynamic light scattering; Predicted mass per monomer 46,776 Da; also called HpSHMT; SHMT; source: E. coli SG 13009 (pREP4), pQE60, …) MAYFLEQTDSEIFELIFEEYKRQNEHLEMIASENYTFASVMEAMGSVLTNKYAEGYPNKRYYGGCEVVDKIESLAIERAKKLFNCQFANVQAHSGSQANNAVYHALLKPYDKILGMDLSCGGHLTHGAKVSLTGKHYQSFSYGVNLDGYIDYEEALKIAQSVKPEIIVCGFSAYPREIDFKKFREIADEVGALLLGDIAHVAGLVVTGEHAHPFPHCHVVSSTTHKTLRGPRGGIILTNDEEIAAKIDKAIFPGTQGGPLMHVIAAKAVGFKENLKPEFKAYAQLVKSNMQVLAKALKEKNHKLVSGGTSNHLLLMDFLDKPYSGKDADIALGNAGITVNKNTIPGETRSPFVTSGIRIGSAALSARGMGAKEFEIIGNKISDILNDINNVSLQLHVKEELKAMVNQFPVYHQPIF", "values": [{"measurement": "stoichiometry N", "setting": "[4]", "value": 2}]}]}
